According to patent US9006487B2, “Amine-containing lipids and uses thereof” (Massachusetts Institute of Technology, priority 2005, dated 2015):

Tests used:
[1] = tested on: cos-7 cells; experiment: DNA transfection: luciferase expression relative to Lipofectamine 2000; type: cell-based; conditions: for Luciferase expression as a percentage of that achieved using Lipofectamine 2000: 300 ng Luciferase DNA per well; for Luciferase expression as a percentage of that achieved using Lipofectamine 2000 / % of the luciferase activity obtained from the use of Lipofectamine 2000: luciferase assay after 48 hours; for luciferase expression (second part of table, values relative to LIPO2000): 300 ng of DNA per well; for % of the luciferase activity obtained from the use of Lipofectamine 2000: 300 ng DNA per well
In short: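 Lipid/DNA complexes, 300 ng luciferase DNA per well at 2.5-25 w/w lipid:DNA, were formed in sodium acetate/Optimem and added to overnight-seeded cos-7 cells. Luciferase was measured by Bright-Glo luminescence after 48 hours and quantified against an enzyme standard curve. Values are expressed as % of Lipofectamine 2000 at 2.5 w/w.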

[2] = tested on: renilla and firefly luciferases; experiment: siRNA delivery: reporter-protein (renilla luciferase) knockdown relative to Lipofectamine 2000, firefly luciferase as viability control; type: cell-based; conditions: 50 ng of siRNA per well
Experimental: Reporter-protein knockdown achieved by the top transfecting lipids relative to Lipofectamine™ 2000 (where negative values indicate improved knockdown). The assay accounts for toxicity, monitoring expression of both renilla and firefly luciferases, where the latter serves as viability control. For each lipid, 50 ng of siRNA was added per well at specific lipid/RNA w/w ratios (from top to bottom: 2.5, 5, 10, 15).

Structure (SMILES) | Luciferase expression as a percentage of that achieved using Lipofectamine 2000 ([1]; lipid/DNA 2.5 w/w) | luciferase expression (second part of table, values relative to LIPO2000) ([1]; lipid/DNA 2.5 w/w) | Luciferase expression as a percentage of that achieved using Lipofectamine 2000 ([1]; lipid/DNA 5 w/w) | luciferase expression (second part of table, values relative to LIPO2000) ([1]; lipid/DNA 5 w/w) | Luciferase expression as a percentage of that achieved using Lipofectamine 2000 ([1]; lipid/DNA 10 w/w) | luciferase expression (second part of table, values relative to LIPO2000) ([1]; lipid/DNA 10 w/w) | Luciferase expression as a percentage of that achieved using Lipofectamine 2000 ([1]; lipid/DNA 15 w/w) | luciferase expression (second part of table, values relative to LIPO2000) ([1]; lipid/DNA 15 w/w) | Luciferase expression as a percentage of that achieved using Lipofectamine 2000 ([1]; lipid/DNA 20 w/w) | luciferase expression (second part of table, values relative to LIPO2000) ([1]; lipid/DNA 20 w/w) | Luciferase expression as a percentage of that achieved using Lipofectamine 2000 ([1]; lipid/DNA 25 w/w) | luciferase expression (second part of table, values relative to LIPO2000) ([1]; lipid/DNA 25 w/w) | Reporter-protein knockdown relative to Lipofectamine 2000 (negative values indicate improved knockdown) ([2]; lipid/RNA 2.5 w/w) | Reporter-protein knockdown relative to Lipofectamine 2000 (negative values indicate improved knockdown) ([2]; lipid/RNA 5 w/w) | Reporter-protein knockdown relative to Lipofectamine 2000 (negative values indicate improved knockdown) ([2]; lipid/RNA 10 w/w) | Reporter-protein knockdown relative to Lipofectamine 2000 (negative values indicate improved knockdown) ([2]; lipid/RNA 15 w/w) | further results
CCCCCCCCCCCCOC(=O)CCN(CCOCCO)CCC(=O)OCCCCCCCCCCCC [LD31] | 44.2% | 44.2 | 38.7% | 38.7 | 18.8% | 18.8 | 11.3% | 11.3 | 42.8% | 42.8 | 174.1% | 174.1 | 15.3558 | −7.897 | −15.5821 | −16.8831 | –
CCCCCCCCCCCCCOC(=O)CCN(CCCN(CCO)CCO)CCC(=O)OCCCCCCCCCCCCC [LE87] | – | – | – | – | – | – | – | – | – | – | – | – | 5.504 | −6.923 | −8.533 | −15.2929 | % of the luciferase activity obtained from the use of Lipofectamine 2000 ([1]; 2.5 w/w lipid to DNA): 10.5%; % of the luciferase activity obtained from the use of Lipofectamine 2000 ([1]; 5 w/w lipid to DNA): 9.0%; % of the luciferase activity obtained from the use of Lipofectamine 2000 ([1]; 10 w/w lipid to DNA): 38.4%; % of the luciferase activity obtained from the use of Lipofectamine 2000 ([1]; 15 w/w lipid to DNA): 4.3%; % of the luciferase activity obtained from the use of Lipofectamine 2000 ([1]; 20 w/w lipid to DNA): 0.0%; % of the luciferase activity obtained from the use of Lipofectamine 2000 ([1]; 25 w/w lipid to DNA): 0.0%
CCCCCCCCCCCCCCOC(=O)CCN(CCOCCO)CCC(=O)OCCCCCCCCCCCCCC [LF31] | 64.1% | 64.1 | 78.7% | 78.7 | 13.4% | 13.4 | 69.5% | 69.5 | 97.3% | 97.3 | 266.8% | 266.8 | 50.09 | 11.94 | −0.8252 | −10.5366 | –
CCCCCCCCCCCCCCCOC(=O)CCN(CCOCCO)CCC(=O)OCCCCCCCCCCCCCCC [LG31] | 19.6% | 19.6 | 27.6% | 27.6 | 34.0% | 34.0 | 8.5% | 8.5 | 14.3% | 14.3 | 94.0% | 94.0 | 41 | 21.06 | −2.714 | −5.764 | –
